Source: patent US20240381872A1, “SUBSTITUTED 2,3-DIHYDRO[1,3]THIAZOLO[4,5-B]PYRIDINES, SALTS THEREOF AND THEIR USE AS HERBICIDALLY ACTIVE SUBSTANCES” (BAYER AKTIENGESELLSCHAFT, priority 2021, published 2024)

Legend:
Assay type in all cases: in vivo
[1] = test system: Echinochloa crus-galli (ECHCG); assay: Herbicidal post-emergence action, section B (Table B3); settings: application rate 1280 g/ha, rated visually after about 3 weeks
Summary of the method: (§1)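 Post-emergence greenhouse test. One-leaf stage; WP or EC plus 0.5% additive; 600 liters per hectare water volume; visual % rating at ~3 weeks relative to untreated plants.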

Setaria viridis (SETVI) [2] = assay: Herbicidal post-emergence action, section B (Table B8); settings: application rate 1280 g/ha; visual rating about 3 weeks after treatment vs untreated controls
Summary of the method: as §1

[3] = test system: Abutilon theophrasti (ABUTH); assay: Herbicidal pre-emergence action, section A (Table A1); settings: visual grading after ca. 3 weeks vs untreated controls
From the text: Seeds of mono- and dicotyledonous weed plants were sown in plastic pots (double sowings with one species of mono- and one species of dicotyledonous weed plants per pot), in sandy loam, and covered with soil. The compounds according to the invention, formulated in the form of wettable powders (WP) or as emulsifiable concentrates (EC), were applied to the surface of the covering soil as aqueous suspension or emulsion, with the addition of 0.5% of an additive, at an application rate of 600 l of water per hectare (converted). Following treatment, the pots were placed in a greenhouse and kept under optimum growth conditions for the test plants. The visual grading of the damage to the test plants was carried out after ca. 3 weeks in comparison to untreated controls (herbicidal effect in percent (%): 100% effect=plants have died off, 0% effect=as control plants).

Stellaria media (STEME) [4] = assay: Herbicidal pre-emergence action, section A (Table A9); settings: application rate 320 g/ha
Summary of the method: (§2)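 In this greenhouse test, sown seeds under soil cover received the compounds as suspensions or emulsions, with 0.5% additive, at 600 l water/ha before emergence. Damage was assessed by eye after about 3 weeks, compared with untreated controls.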

[5] = test system: Matricaria inodora (MATIN); assay: Herbicidal post-emergence action, section B (Table B6); settings: application rate 1280 g/ha; visual rating about 3 weeks after treatment vs untreated controls
Protocol: (§3) Seeds of mono- and dicotyledonous weed plants were placed in plastic pots in sandy loam soil (doubly sown with in each case one species of mono- or dicotyledonous weed plants per pot), covered with soil and cultivated in a greenhouse under controlled growth conditions. 2 to 3 weeks after sowing, the test plants were treated at the one-leaf stage. The compounds of the invention, formulated in the form of wettable powders (WP) or as emulsion concentrates (EC), were applied onto the green parts of the plants as aqueous suspension or emulsion with addition of 0.5% additive at a water application rate of 600 liters per hectare (converted). After the test plants had been kept in the greenhouse under optimum growth conditions for about 3 weeks, the activity of the preparations was rated visually in comparison to untreated controls. For example, 100% activity=the plants have died, 0% activity=like control plants.

Lolium rigidum (LOLRI) [6] = assay: Herbicidal pre-emergence action, section A (Table A5); settings: visual grading after ca. 3 weeks vs untreated controls
Summary of the method: as §2

Veronica persica (VERPE) = assay: Herbicidal pre-emergence action, section A (Table A10); settings: application rate 1280 g/ha
Summary of the method: as §2

[7] = test system: Alopecurus myosuroides (ALOMY); assay: Herbicidal pre-emergence action, section A (Table A2); settings: application rate 1280 g/ha; visual grading after ca. 3 weeks vs untreated controls
Summary of the method: as §2

[8] = test system: Digitaria sanguinalis (DIGSA); assay: Herbicidal pre-emergence action, section A (Table A12); settings: application rate 320 g/ha
Summary of the method: as §2

Setaria viridis (SETVI) [9] = assay: Herbicidal pre-emergence action, section A (Table A8); settings: application rate 1280 g/ha
Summary of the method: as §2

Kochia scoparia (KCHSC) [10] = assay: Herbicidal pre-emergence action, section A (Table A4); settings: visual grading after ca. 3 weeks vs untreated controls
Summary of the method: as §2

Poa annua (POAAN) [11] = assay: Herbicidal pre-emergence action, section A (Table A7); settings: application rate 320 g/ha; visual grading after ca. 3 weeks vs untreated controls
Summary of the method: as §2

[12] = test system: Echinochloa crus-galli (ECHCG); assay: Herbicidal pre-emergence action, section A (Table A3); settings: visual grading after ca. 3 weeks vs untreated controls
Summary of the method: as §2

[13] = test system: Matricaria inodora (MATIN); assay: Herbicidal pre-emergence action, section A (Table A6); settings: visual grading after ca. 3 weeks vs untreated controls
Summary of the method: as §2

Poa annua (POAAN) [14] = assay: Herbicidal post-emergence action, section B (Table B7); settings: visual rating about 3 weeks after treatment vs untreated controls
Summary of the method: as §1

[15] = test system: Amaranthus retroflexus (AMARE); assay: Herbicidal pre-emergence action, section A (Table A11); settings: application rate 320 g/ha
Summary of the method: as §2

Zea mays (ZEAMX) [16] = assay: Pre-emergence effects on crop plants, section D (Table D1); settings: application rate 320 g/ha; visual grading after ca. 3 weeks
From the text: (§4) Seeds of mono- and dicotyledonous weed plants and crop plants were sown, in plastic or organic planting pots, in sandy loam and covered with soil. The compounds according to the invention, formulated in the form of wettable powders (WP) or as emulsifiable concentrates (EC), were applied to the surface of the covering soil as aqueous suspension or emulsion, with the addition of 0.5% of an additive, at an application rate of 600 l of water/ha (converted).
(§5) Following treatment, the pots were placed in a greenhouse and kept under optimum growth conditions for the test plants. The visual grading of the damage to the test plants was carried out after ca. 3 weeks in comparison to untreated controls (herbicidal effect in percent (%): 100% effect=plants have died off, 0% effect=as control plants).
(§6) Tables D1 to D5 below show the effects of various compounds of the general formula (I) according to Table 1 on various crop plants and an application rate corresponding to 320 g/ha or below obtained by the experimental procedure mentioned above in Biological Examples, Section C.

[17] = test system: Triticum aestivum (TRZAS); assay: Post-emergence effects on crop plants, section F (Table F2); settings: Triticum aestivum, 504 h, application rate 320 g/ha, read-out: post-emergence activity against TRZAS in %
From the text: (§7) Seeds of mono- and dicotyledonous weed plants and crop plants were sown, in plastic or organic planting pots, in sandy loam, covered with soil and grown in a greenhouse under controlled growth conditions. 2 to 3 weeks after sowing, the test plants were sprayed in the single-leaf stage. The compounds according to the invention, formulated in form of wettable powders (WP) or as emulsifiable concentrates (EC), were sprayed onto the green plant parts as aqueous suspension or emulsion, with the addition of 0.5% of an additive, at an application rate of 600 l of water/ha (converted). The test plants were placed in the greenhouse for ca. 3 weeks under optimum growth conditions, and then the effect of the preparations was assessed visually in comparison with untreated controls (herbicidal effect in percent (%): 100% effect=plants have died off, 0% effect=as control plants). Tables F1 to F4 below show the effects of selected compounds of the general formula (I) according to Table 1 on various crop plants and an application rate corresponding to 320 g/ha or below obtained by the experimental procedure mentioned above.

Glycine max (GLXMA) [18] = assay: Post-emergence effects on crop plants, section F (Table F4); settings: Glycine max, 504 h, application rate 320 g/ha, read-out: post-emergence activity against GLXMA in %
From the text: as §7

Glycine max (GLXMA) [19] = assay: Pre-emergence effects on crop plants, section D (Table D4); settings: application rate 80 g/ha; visual grading after ca. 3 weeks
From the text: as §4, §5, §6

Brassica napus (BRSNW) [20] = assay: Post-emergence effects on crop plants, section F (Table F5); settings: Brassica napus, 504 h, application rate 320 g/ha, read-out: post-emergence activity against BRSNW in %
From the text: as §7

Brassica napus (BRSNW) [21] = assay: Pre-emergence effects on crop plants, section D (Table D5); settings: application rate 80 g/ha; visual grading after ca. 3 weeks
From the text: as §4, §5, §6

Zea mays (ZEAMX) [22] = assay: Post-emergence effects on crop plants, section F (Table F1); settings: Zea mays, 504 h, application rate 320 g/ha, read-out: post-emergence activity against ZEAMX in %
From the text: as §7

[23] = test system: Triticum aestivum (TRZAS); assay: Pre-emergence effects on crop plants, section D (Table D2); settings: application rate 320 g/ha; visual grading after ca. 3 weeks
From the text: as §4, §5, §6

Lolium rigidum (LOLRI) [24] = assay: Herbicidal post-emergence action, section B (Table B5); settings: application rate 1280 g/ha; visual rating about 3 weeks after treatment vs untreated controls
Protocol: as §3

Kochia scoparia (KCHSC) [25] = assay: Herbicidal post-emergence action, section B (Table B4); settings: application rate 1280 g/ha; visual rating about 3 weeks after treatment vs untreated controls
Summary of the method: as §1

[26] = test system: Amaranthus retroflexus (AMARE); assay: Herbicidal post-emergence action, section B (Table B11); settings: application rate 1280 g/ha; visual rating about 3 weeks after treatment vs untreated controls
Summary of the method: as §1

[27] = test system: Abutilon theophrasti (ABUTH); assay: Herbicidal post-emergence action, section B (Table B1); settings: application rate 320 g/ha, rated visually after about 3 weeks
Summary of the method: as §1

Stellaria media (STEME) [28] = assay: Herbicidal post-emergence action, section B (Table B9); settings: application rate 320 g/ha; visual rating about 3 weeks after treatment vs untreated controls
Summary of the method: as §1

Structure (SMILES): COC(=O)CS(=O)(=O)N1CSc2cc(C)c(-c3ccccc3F)nc21 [Example I-121]
- post-emergence activity against ECHCG in % [1]: 90%
- post-emergence activity against SETVI in % (Setaria viridis (SETVI) [2]): 90%
- pre-emergence activity against ABUTH in % ([3]; application rate 1280 g/ha): 90%
- pre-emergence activity against STEME in % (Stellaria media (STEME) [4]): 90%
- post-emergence activity against MATIN in % [5]: 90%
- pre-emergence activity against LOLRI in % (Lolium rigidum (LOLRI) [6]; application rate 320 g/ha): 100%
- pre-emergence activity against VERPE in % (Veronica persica (VERPE)): 90%
- pre-emergence activity against ALOMY in % [7]: 90%
- pre-emergence activity against DIGSA in % [8]: 100%
- pre-emergence activity against SETVI in % (Setaria viridis (SETVI) [9]): 100%
- pre-emergence activity against KCHSC in % (Kochia scoparia (KCHSC) [10]; application rate 320 g/ha): 90%
- pre-emergence activity against POAAN in % (Poa annua (POAAN) [11]): 100%
- pre-emergence activity against ECHCG in % ([12]; application rate 320 g/ha): 100%
- pre-emergence activity against MATIN in % ([13]; application rate 320 g/ha): 90%
- post-emergence activity against POAAN in % (Poa annua (POAAN) [14]; application rate 320 g/ha): 90%
- pre-emergence activity against AMARE in % [15]: 90%

Structure (SMILES): CCS(=O)(=O)N1CS(=O)(=O)c2cc(C)c(-c3ccccc3F)nc21 [Example I-146, 3-(ethylsulfonyl)-5-(2-fluorophenyl)-6-methyl-2,3-dihydro[1,3]thiazolo[4,5-b]pyridine 1,1-dioxide]
- pre-emergence activity against ZEAMX in % (crop plant damage) (Zea mays (ZEAMX) [16]): 0%
- percent crop plant damage (wheat, post-emergence) at 320 g/ha [17]: 0%
- percent crop plant damage at 320 g/ha (Glycine max (GLXMA) [18]): 0%
- pre-emergence activity against GLXMA in % (crop plant damage) (Glycine max (GLXMA) [19]): 0%
- crop plant damage (phytotoxicity) in % at 320 g/ha (Brassica napus (BRSNW) [20]): 0%
- pre-emergence activity against BRSNW in % (crop plant damage) (Brassica napus (BRSNW) [21]): 0%
- percent crop plant damage (phytotoxicity) on Zea mays, post-emergence at 320 g/ha (Zea mays (ZEAMX) [22]): 0%
- pre-emergence activity against TRZAS in % (crop plant damage) [23]: 0%

Structure (SMILES): Cc1cc2c(nc1-c1cccc(F)c1F)N(C(=O)C1(C)CC(Cl)=NO1)CS2 (stereo not shown) [Example I-152]
- post-emergence activity against LOLRI in % (Lolium rigidum (LOLRI) [24]): 90%
- post-emergence activity against SETVI in % (Setaria viridis (SETVI) [2]): 90%
- pre-emergence activity against ABUTH in % ([3]; application rate 320 g/ha): 90%
- pre-emergence activity against STEME in % (Stellaria media (STEME) [4]): 90%
- pre-emergence activity against LOLRI in % (Lolium rigidum (LOLRI) [6]; application rate 1280 g/ha): 100%
- pre-emergence activity against VERPE in % (Veronica persica (VERPE)): 90%
- pre-emergence activity against ALOMY in % [7]: 90%
- pre-emergence activity against DIGSA in % [8]: 90%
- post-emergence activity against KCHSC in % (Kochia scoparia (KCHSC) [25]): 90%
- pre-emergence activity against SETVI in % (Setaria viridis (SETVI) [9]): 100%
- pre-emergence activity against KCHSC in % (Kochia scoparia (KCHSC) [10]; application rate 1280 g/ha): 100%
- pre-emergence activity against POAAN in % (Poa annua (POAAN) [11]): 100%
- pre-emergence activity against ECHCG in % ([12]; application rate 1280 g/ha): 90%
- pre-emergence activity against MATIN in % ([13]; application rate 1280 g/ha): 90%
- post-emergence activity against AMARE in % [26]: 100%
- post-emergence activity against ABUTH in % [27]: 90%
- post-emergence activity against POAAN in % (Poa annua (POAAN) [14]; application rate 1280 g/ha): 90%
- post-emergence activity against STEME in % (Stellaria media (STEME) [28]): 90%
- pre-emergence activity against AMARE in % [15]: 100%
